This is an account of results in ChEMBL document CHEMBL1137441, “Carbonic anhydrase inhibitors: the inhibition profiles of the human mitochondrial isoforms VA and VB with anions are very different” (Bioorg Med Chem, 2007).

The target in experiment [1] is Carbonic anhydrase 5B, mitochondrial (Homo sapiens) (UniProt Q9Y2D0).
Description: Inhibition of human mitochondrial CA5B by CO2 hydration assay
For experiment [2], the target named is Carbonic anhydrase 5A, mitochondrial (Homo sapiens) (UniProt P35218). In words: Inhibition of human mitochondrial CA5A by CO2 hydration assay.
Sequence of Carbonic anhydrase 5A, mitochondrial (Homo sapiens) (P35218 whole entry): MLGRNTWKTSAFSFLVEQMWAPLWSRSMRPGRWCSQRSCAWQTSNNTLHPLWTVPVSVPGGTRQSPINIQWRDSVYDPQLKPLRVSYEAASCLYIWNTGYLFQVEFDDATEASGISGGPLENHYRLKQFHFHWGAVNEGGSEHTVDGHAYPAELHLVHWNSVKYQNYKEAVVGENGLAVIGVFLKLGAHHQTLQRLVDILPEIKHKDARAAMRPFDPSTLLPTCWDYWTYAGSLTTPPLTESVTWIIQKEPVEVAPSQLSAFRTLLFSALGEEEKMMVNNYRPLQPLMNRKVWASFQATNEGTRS

Sequence of Carbonic anhydrase 5B, mitochondrial (Homo sapiens) (Q9Y2D0 whole entry): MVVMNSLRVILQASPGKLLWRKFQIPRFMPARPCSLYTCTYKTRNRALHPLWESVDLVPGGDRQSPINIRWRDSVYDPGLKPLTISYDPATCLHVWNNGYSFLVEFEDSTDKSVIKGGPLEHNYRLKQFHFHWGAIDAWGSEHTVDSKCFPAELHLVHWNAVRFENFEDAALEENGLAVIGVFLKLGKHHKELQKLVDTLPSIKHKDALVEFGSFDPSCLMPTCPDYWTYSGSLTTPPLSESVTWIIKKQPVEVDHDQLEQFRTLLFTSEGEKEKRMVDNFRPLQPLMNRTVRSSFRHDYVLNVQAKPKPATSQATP

`O=[As](O)(O)c1ccccc1`: the Kinact is 0.082 mM in experiment [1] and 1.02 mM in experiment [2].

`OB(O)c1ccccc1` gave a Kinact in experiment [2] of 1.04 mM.
